Results reported in a melting point compilation (Tetko et al.).

SMILES | melting point [°C]
COC(=O)Nc1nc2cc(C(=O)C3CC3)ccc2[nH]1 | 250
Nc1ncnc2[nH]nnc12 | > 300
O=C(O)CSCC(=O)O | 129
CCOC(=O)c1c(N=C=S)sc2c1CCCC2 | 45 to 46
CCCC(C)O (stereo unspecified) | -73
CC1(c2ccccc2)CC(C(=O)c2cc3ccccc3o2)C1 (stereo unspecified) | 156 to 157
ClCc1cc(-c2cccs2)on1 | 32 to 34
Cn1cc(I)cn1 | 61 to 67
CCN(CCO)c1ccc(N=Nc2ccc([N+](=O)[O-])cc2Cl)cc1 | 133
COC(=O)C(O)C(O)C(=O)OC (stereo unspecified) | 59
COc1cc(I)cc(C=O)c1O | 129
COc1c2c(cc3oc(=O)ccc13)OC(C)(C)C=C2 | 133
CC1CC2C(C(O)CC3(C)C2CCC3(O)C(=O)CO)C2(C)C=CC(=O)C=C12 (stereo unspecified) | 233
CSCCC(NC(=O)c1ccccc1)C(=O)O (racemic) | 150 to 154
CCCCc1c(C)nc(NCC)nc1OS(=O)(=O)N(C)C | 50.5
c1ccc(/N=N/c2ccccc2/N=N/c2ccccc2)cc1 | 111
Brc1cccs1 | -10
CN1CCCC1c1cccnc1 (stereo unspecified) | -79
COc1cc(N=C=O)cc(OC)c1OC | 40
O=S(=O)(Cl)c1ccc(-c2ccc(Cl)c(Cl)c2)cc1 | 105 to 106
O=C(C=Cc1ccc(Cl)cc1)c1ccc(Cl)cc1 | 158
CCCCCCCNCCCCCCC | 31.5

SMILES | melting point [°C]
C=CCN(CC=C)C(=O)COC(=O)c1ccccc1 | 42.5
CC(C(=O)O)=C(c1ccccc1)c1ccccc1 | 163
O=C(C=Cc1ccccc1)c1ccccc1O | 90
CC(=O)Oc1c(-c2ccc(-c3[nH]c4cc([N+](=O)[O-])ccc4c3OC(C)=O)cc2)[nH]c2cc([N+](=O)[O-])ccc12 | 280
CCOc1ccc2nc3cc(N)ccc3c(N)c2c1 | 226
Cn1cnc2ccccc21 | 61
COC(=O)CCCCCCCCCCCC(=O)OC | 36
Cc1ccc([N+](=O)[O-])c(CCl)c1 | 41 to 47
CC1=NN(c2ccccc2)C(=O)/C1=C\c1cccc(/C=C2\C(=O)N(c3ccccc3)N=C2C)c1 | 220
COC(=O)C1=C(C)NC(CBr)=C(C(=O)OCCCl)C1c1cccc([N+](=O)[O-])c1 (stereo unspecified) | 205 to 206
C=C1C(C)C2C(Cc3ccccc3)NC(=O)C23OC(=O)CCC(O)CCCC(C)CC=CC3C1O (stereo unspecified) | 203 to 205
C1CSCS1 | -50
CC(=O)CC(=O)Nc1ccc(-c2ccc(NC(=O)CC(C)=O)c(C)c2)cc1C | 212
N#Cc1c(-c2cccs2)cc(-c2ccco2)[nH]c1=O | 318 to 320
O=CC=Cc1ccc([N+](=O)[O-])o1 | 118
COP(=S)(OC)SCC(=O)N(C)C=O | 25.5
O=C(C(=S)Nc1ccc(Cl)cc1)c1ccccc1 | 222 to 223
CCC(c1ccc(O)c(C)c1)C(CC)c1ccc(O)c(C)c1 (stereo unspecified) | 145
CC1CC2C3CCC4=CC(=O)C=CC4(C)C3C(=O)CC2(C)C1(O)C(=O)CO (stereo unspecified) | 202
O=C(C=Cc1ccc(F)cc1)c1ccccc1 | 84 to 88
CC1OC(=O)C(C)C1CC(O)C(C)(O)C1CCC2(O)C3=CC(=O)C4CC(O)C(O)CC4(C)C3CCC12C (stereo unspecified) | 158 to 160
CC(C)(C)OC(=O)NC(Cc1ccccc1)C(=O)NN (stereo unspecified) | 131 to 136

SMILES | melting point [°C]
COc1ccc(-c2nnc3n2NC(c2ccc([N+](=O)[O-])cc2)S3)cc1 (stereo unspecified) | 209 to 211
CCOC(=O)c1c(-c2ccco2)csc1N | 86 to 89
CC(=O)Nc1ccc(N)cc1C | 141 to 142
CCOC(=O)C1=C(C)NC(=O)NC1c1ccc(O)c(OC)c1 (stereo unspecified) | 190
OC[C@H]1OC(Nc2ccccc2)C[C@@H]1O (stereo partly specified) | 151
[O-][n+]1nc(-n2ccnc2)nc2ccc(Cl)cc21 | 182
c1c2c(cc3c1CCCC3)CCCC2 | 78
Cc1ccccc1/C=C(\C#N)c1nc2ccccc2n1C | 269
c1cc2c3c(ccc4c3c1CCC4)CCC2 | 133
CCC(=O)NC | -30.9
CCc1cc(Cc2cc(CC)c(N)c(CC)c2)cc(CC)c1N | 88 to 91
BrC(=C(c1ccccc1)c1ccccc1)c1ccccc1 | 115 to 117
CCCCCCCCC=CCCCCCCCC(=O)Nc1ccccc1 | 41
COc1ccc(-c2nnc3n2NC(c2ccc(O)c(OC)c2)S3)cc1 (stereo unspecified) | 173
Cc1c2ccccc2cc2ccc3ccccc3c12 | 138
O=C1C=C(NCNc2ccccn2)C(=O)c2ccccc21 | 134 to 136
O=C1c2ccccc2C(=O)N1CC1CNCCO1 (stereo unspecified) | 138 to 143
COc1ccc([N+](=O)[O-])cc1C(=O)O | 157
COC(=O)c1cc(C)c(Br)s1 | 35 to 37
Brc1ccc2oc3ccccc3c2c1 | 110
CC12CCC(C(COC=O)C1=O)C2(C)C (stereo unspecified) | 74
CCCCOC(=O)c1ccccc1C(=O)O | 73.5

SMILES | melting point [°C]
Nc1cccc(I)c1 | 33
c1ccc2c(c1)nnc1ccccc12 | 158
OCc1cc2cccnc2s1 | 47 to 49
CC(=O)N1CCCCC1 | -13.4
ClCc1cc(Cl)cc(Cl)c1 | 36
O=C1OC(/C=C/c2ccccc2)Cc2ccccc21 (stereo unspecified) | 84
C=C(C)C1CC=C(C)C(=NO)C1 (stereo unspecified) | 71.5
COc1cc(Cc2cnc(N)nc2N)cc(OC)c1Br | 226
Ic1cc(I)c(I)cc1I | 254
CNC(=O)Oc1cccc(C)c1 | 77.7
ClC(Cl)(Cl)C(Cl)(Cl)Cl | 187
CC(=O)O[Si](C)(C)OC(C)=O | -12.5
CCCCCCCCNC | -11
CSCN1C(=O)NC(c2ccccc2)(c2ccccc2)C1=O | 124 to 131
CC1(C)OC(=O)C(=Cc2ccc([N+](=O)[O-])cc2)C(=O)O1 | 301
O=Cc1cc(Br)cs1 | 46 to 47
CCOC(=O)c1c(NC(=S)Nc2ccc(Br)cc2)sc2c1CCCC2 | 204 to 205
O=[N+]([O-])c1ccc2c(c1)=[N+]([O-])C1(CCCC1)[N+]=2[O-] | 148 to 150
O=C(O)CSc1ccccc1C(=O)O | 218
CN(C)CCCN1c2ccccc2CCc2ccc(Cl)cc21 | 190
O=C1C=CC(=O)c2c(O)cccc21 | 162

Results, then the molecule that gave them:

melting point [°C] | SMILES
194 to 195 | O=c1cc(Cl)nc[nH]1
109 to 110 | O=S(=O)(Cl)c1ccc(-c2ccc(Cl)cc2)cc1
170 | Cc1cc(C(N)=S)n(C)n1
146 | Nc1c(F)c(F)c(-c2c(F)c(F)c(F)c(F)c2F)c(F)c1F
37 | O=C(CCCCl)c1ccc(Br)cc1
138 to 140 | CCc1nc(N)nc(Cl)c1C
151 to 152 | CC(C)(C)OC(=O)Nc1cccs1
172 | O=C(O)c1cnc(Cl)c(Br)c1
222 | CC(C)CC1Nc2cc(Cl)c(S(N)(=O)=O)cc2S(=O)(=O)N1 (stereo unspecified)
165 | NS(=O)(=O)c1cc(F)c(Br)cc1F
189 | Cc1ccc(C)c(NN=C2C(=O)NN=C2C(F)(F)F)c1
83 to 84 | OCc1cc(C(F)(F)F)ccc1N1CCOCC1
106 | CCCCCC(=O)Nc1ccc(Cl)c(Cl)c1
-27 | CCCCCCCCC(=O)OCCCCC
13 | FC1CCCCC1
209 to 212 | O=C(O)C=CC(=O)Nc1ccc(F)cc1
111 | CCCNc1cc(=O)oc2ccccc12
142 | CC(C)(C)c1ccc(-c2ccc(Br)cc2)cc1
58 to 59 | CC(C)(C)OC(=O)N1C2CCC1CC(=O)C2
-115 | CC=CC(C)(C)C
160 | O=C1Cc2cc(S(=O)(=O)Cl)ccc2N1
300 | Nc1cc(S(=O)(=O)O)ccc1Cl

melting point [°C] | SMILES
209 to 211 | CCOC(=O)Cn1cc(Cl)c(=O)c(Cl)c1
100 | CC(NC(=O)C(F)(F)C(F)(F)C(F)(F)C(F)(F)C(F)(F)C(F)(F)C(F)(F)C(F)(F)F)c1ccccc1 (stereo unspecified)
77 | Fc1ccc(C(=S)N2CCCCC2)cc1
78 to 80 | O=C(c1ccc(Cl)c([N+](=O)[O-])c1)C1CC1
134 to 137 | Fc1cc(Br)c(I)c(Br)c1
134 to 136 | Brc1ccc(Oc2c(Br)cc(Br)cc2Br)cc1
44 to 46 | CC(C)(C)OC(=O)C(C)(C)Sc1ccc(Cl)cc1
115 to 117 | COc1ccc(C(O)C(C)(C)C(=O)O)cc1 (stereo unspecified)
53 | CCOC(=O)CSc1nc(C(C)(C)C)nn1C(=O)N(C)C
-99.4 | FC(F)(F)C(F)(F)Cl
148 to 149 | NC(=O)C1CC1(Cl)Cl (stereo unspecified)
135 to 140 | Cc1c(O)c(C)c(CCl)c(C)c1CCl
99 | O=C(Nc1ccccc1Cl)c1ccccc1
198 to 201 | O=C(O)c1ccc(-c2ccc(Cl)cc2)o1
110 | CCCCCCNC(=O)n1cc(F)c(=O)[nH]c1=O
49.5 | CC(Cl)(Cl)C(=O)OCCOc1cc(Cl)c(Cl)cc1Cl
109 | O=C(O)COc1c(F)c(F)c(F)c(F)c1F
100 | N#Cc1c(O)nsc1Nc1ccccc1Cl
95 | CC(C)(C)C(=O)OCOc1ccccc1C(N)=O
293 | O=C(O)c1cc(O)cc(C(=O)O)c1
59 | O=S(=O)(Cl)c1cccc(S(=O)(=O)Cl)c1
120 | COc1cc(Cl)c(OC)cc1N
